The pKa sets of Baltruschat and Czodrowski (2020)

Settings: acidic group

pKa	Compound
8.97	C[NH+](C)CCCCCCCCNC(=O)/C=N/O
7.5	CC(=O)CC(=S)Nc1ccccc1
4.66	CC(=O)CCCC(=O)O
3.66	CC(C)(C)OC(=O)NC(CCC(N)=O)C(=O)O (stereo not drawn)
3.64	CC(C)c1csc(C(=O)O)c1
-1.3	CO[n+]1ccccc1O
11.6	[O-]c1ncncc1O
3.41	CCC(C)(O)C(C(=O)O)c1ccc(-c2ccccc2)cc1 (stereo not drawn)
7.86	Oc1ccc(-c2cc(=S)ss2)cc1
9.19	CCCCCCCC(=O)NO
7.6	Cc1c(O)n[nH]c1-c1ccccc1
2.1	COc1ccc(O)c(C[NH2+]C(CO)C(=O)O)c1 (stereo not drawn)
10.1	C=CCc1ccc2cccnc2c1O
3.53	N#Cc1ccc(C(=O)O)cc1
12.6	Nc1ccc(C(=O)[O-])c2ncccc12
12.1	COCC(=O)NN
10.3	Fc1ccc(NC(=S)c2cccc(Br)c2)cc1
6.91	CCc1cc(Cl)c(OC)c(C(=O)NC[C@H]2CCC[NH+]2CC)c1O
11.6	Nc1nc([S-])c2[nH]cnc2n1
9.51	Oc1ccc2c(c1)Cc1ccccc1-2
10.7	O/N=C(/NO)c1ccccc1
4.64	Cc1cc(C(=O)O)c(C)o1
2.24	O=C(O)/C(I)=C\c1ccccc1
3.79	CCc1ccccc1C(=O)O
3.5	Cn1cc([NH3+])cc1C(=O)O
9.48	OC[C@@H]1O[C@@H]2NC(=S)O[C@@H]2[C@H]1O

pKa	Compound
6.33	CCN(CC)c1nnn[nH]1
3.64	CC(C)c1ccccc1C(=O)O
10.2	CC/C=C/Cc1nc(C(=O)[O-])cn1[C@H](C(=O)[O-])C(C)(C)S
9.35	O=C([O-])c1ccc(O)cc1
9.72	Nc1ccc(S(=O)(=O)Nc2ncc[nH]2)cc1
11.2	Nc1ccc(O)c2ncccc12
5.02	CCC(C)(O)c1cnc(CC(C)C)c(O)[n+]1[O-] (stereo not drawn)
8.55	OB(O)c1cccc(O)c1
9.85	COc1cc2c(cc1OC)[C@@H]1Cc3ccc(OC)c(O)c3[C@H](C2)N1C
2.2	O=C([O-])CN(CC(=O)O)Cc1cc(Cl)cc(C[NH+](CC(=O)[O-])CC(=O)O)c1O
10.3	Oc1ccccc1CN1CCOCC1
9.83	ONc1ccc(O)cc1
11.7	O=[N+]([O-])c1cccc2c[n+](CCO)ccc12
3.12	O=C1CC(=O)CS(=O)C1
2.7	Cc1cccc(I)c1C(=O)O
7.6	CC1=NS(=O)(=O)c2cnccc2N1
2.42	C[C@H]([NH3+])C(=O)O
4.08	Cc1c(Cn2cc[nH+]c2)n(C)c2ccc(C(=O)O)cc12
9.89	Cc1ccc(S(N)(=O)=O)cc1
2.55	Cc1cc(C(O)=C(C#N)C#N)cc(C)c1O
4.44	CCC/C=C(/C)C(=O)O
12	NC(=S)Nc1cccc(Cl)c1
12.2	Oc1nc2cc3c(cc2[nH]1)CCCC3
7.03	Cc1ccc(O)cc1Cc1cc([N+](=O)[O-])ccc1O
10.1	O=[N+]([O-])c1cc(O)ccc1[O-]
8.03	CNC(=O)c1ccccc1O

pKa	Compound
4.78	O=C(O)CCCc1ccccc1
9.54	c1ncc2cn[nH]c2n1
2.86	O=C(O)c1cc([N+](=O)[O-])ccc1C(=O)c1ccccc1
2.87	CN(C)C(=S)OCC(=O)O
5.8	Cc1[nH]ccc1C(=O)O
2.32	CC(C)[C@H]([NH3+])C(=O)O
3.72	CC(C)SCC(=O)O
4.8	O=C(O)CC1CCCCC1
6.3	CC(C)CCC1C(=O)C(O)C(CCC(C)C)(CCC(C)C)C1=O (stereo not drawn)
10.9	CCNc1ncnc2[nH]ncc12
6.7	NS(=O)(=O)c1cc2c(cc1Cl)N=CNS2(=O)=O
8.9	Cc1ccc(C(=O)C[S+](C)C)cc1
4.3	CC(=O)N1CCc2noc(O)c2CC1
9.65	C[n+]1ccsc1N
5.65	CCC[Si](C)(CCC)CC(=O)O
9.64	Nc1ccc(B(O)O)c([N+](=O)[O-])c1
5.59	O=S(=O)(Nc1ncc(Cl)cn1)c1ccc(O)cc1
11	Nc1c2c(ncn2Cc2ccccc2)nc[n+]1[O-]
3.21	Cc1c(Cl)cc2nnn(O)c2c1[N+](=O)[O-]
3.01	O=C(O)[C@@H]1O[C@H](Oc2cccc3ccc[nH+]c23)[C@@H](O)[C@H](O)[C@H]1O
3.58	Cn1c(=O)c2[nH]c([N+](=O)[O-])nc2n(C)c1=O
10.8	Cc1cccc(C)c1NC(=S)c1ccccc1
6.01	N#CC(C#N)=C(C#N)NC1CCCCC1
9.6	[O-]c1cc[nH+]cc1O

Compound	pKa
C[N+](=O)[O-]	10.5
CC(C)[NH2+]CCc1ccc(O)cc1	9.59
Nc1nc(N)c2[nH]c(N)nc2n1	10.8
CCCC(=O)OO	8.2
Nc1nnn[nH]1	5.98
[NH3+][C@@H](Cc1c[nH]c[nH+]1)C(=O)N[C@@H](Cc1c[nH]c[nH+]1)C(=O)O	2.25
CC(C)(Cl)C(=O)O	2.97
O=C(O)c1cccc(Cl)c1	3.8
CN(C)c1nnn[nH]1	5.92
O=[PH]([O-])C(NCc1ccncc1)c1ccccc1O (stereo not drawn)	11.9
Cn1c([O-])nc(=O)c2[nH]cnc21	11.7

Same assay, conditions: basic group

pKa	Compound
6.66	CC(=O)CCN1CCOCC1
